Reference: ChEMBL document CHEMBL1250451, “Mechanistic insights into a Ca2+-dependent family of alpha-mannosidases in a human gut symbiont” (Nat Chem Biol, 2010)
Calls of active or inactive are those of the source. No cut-off for these calls is given here.

Key:
Format in all cases: protein assay
[1] = molecular target: T1, Alpha-1,2-mannosidase (BT_3990) (Bacteroides thetaiotaomicron) (UniProt Q8A0N1); assay: Activity of Bacteroides thetaiotaomicron GH92 alpha-mannosidase GH92 alpha-mannosidase 3990 assessed as mannose release at 1 mM after 16 hrs by HPLC relative to untreated control after 16 hrs by HPLC
T1 sequence (whole entry): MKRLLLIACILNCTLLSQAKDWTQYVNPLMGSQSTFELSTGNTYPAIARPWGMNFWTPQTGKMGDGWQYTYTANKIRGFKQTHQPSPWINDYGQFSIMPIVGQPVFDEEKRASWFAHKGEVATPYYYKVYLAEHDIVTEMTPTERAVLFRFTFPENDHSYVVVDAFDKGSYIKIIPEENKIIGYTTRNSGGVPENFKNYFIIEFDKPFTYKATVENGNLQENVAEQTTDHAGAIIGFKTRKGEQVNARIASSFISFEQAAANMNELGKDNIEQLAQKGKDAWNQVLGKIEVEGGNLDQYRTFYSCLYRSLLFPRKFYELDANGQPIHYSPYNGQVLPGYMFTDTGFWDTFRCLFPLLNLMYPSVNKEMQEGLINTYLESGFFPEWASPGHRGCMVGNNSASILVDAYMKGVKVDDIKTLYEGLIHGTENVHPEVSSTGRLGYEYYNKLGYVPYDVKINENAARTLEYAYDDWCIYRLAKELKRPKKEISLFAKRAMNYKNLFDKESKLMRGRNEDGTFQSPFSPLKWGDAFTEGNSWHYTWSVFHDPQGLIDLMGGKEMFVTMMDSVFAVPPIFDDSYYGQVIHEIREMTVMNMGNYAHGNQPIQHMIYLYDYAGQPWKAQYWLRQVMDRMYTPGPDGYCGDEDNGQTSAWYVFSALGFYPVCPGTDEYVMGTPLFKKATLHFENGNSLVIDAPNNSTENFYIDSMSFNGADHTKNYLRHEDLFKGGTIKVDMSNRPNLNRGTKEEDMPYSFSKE

[2] = molecular target: T2, Alpha-1,2-mannosidase (BT_2948) (Bacteroides thetaiotaomicron) (UniProt Q8A3K6); assay: Activity of Bacteroides thetaiotaomicron GH92 alpha-mannosidase GH92 alpha-mannosidase 2948 assessed as mannose release at 1 mM after 16 hrs by HPLC relative to untreated control after 16 hrs by HPLC
T2 sequence (whole entry): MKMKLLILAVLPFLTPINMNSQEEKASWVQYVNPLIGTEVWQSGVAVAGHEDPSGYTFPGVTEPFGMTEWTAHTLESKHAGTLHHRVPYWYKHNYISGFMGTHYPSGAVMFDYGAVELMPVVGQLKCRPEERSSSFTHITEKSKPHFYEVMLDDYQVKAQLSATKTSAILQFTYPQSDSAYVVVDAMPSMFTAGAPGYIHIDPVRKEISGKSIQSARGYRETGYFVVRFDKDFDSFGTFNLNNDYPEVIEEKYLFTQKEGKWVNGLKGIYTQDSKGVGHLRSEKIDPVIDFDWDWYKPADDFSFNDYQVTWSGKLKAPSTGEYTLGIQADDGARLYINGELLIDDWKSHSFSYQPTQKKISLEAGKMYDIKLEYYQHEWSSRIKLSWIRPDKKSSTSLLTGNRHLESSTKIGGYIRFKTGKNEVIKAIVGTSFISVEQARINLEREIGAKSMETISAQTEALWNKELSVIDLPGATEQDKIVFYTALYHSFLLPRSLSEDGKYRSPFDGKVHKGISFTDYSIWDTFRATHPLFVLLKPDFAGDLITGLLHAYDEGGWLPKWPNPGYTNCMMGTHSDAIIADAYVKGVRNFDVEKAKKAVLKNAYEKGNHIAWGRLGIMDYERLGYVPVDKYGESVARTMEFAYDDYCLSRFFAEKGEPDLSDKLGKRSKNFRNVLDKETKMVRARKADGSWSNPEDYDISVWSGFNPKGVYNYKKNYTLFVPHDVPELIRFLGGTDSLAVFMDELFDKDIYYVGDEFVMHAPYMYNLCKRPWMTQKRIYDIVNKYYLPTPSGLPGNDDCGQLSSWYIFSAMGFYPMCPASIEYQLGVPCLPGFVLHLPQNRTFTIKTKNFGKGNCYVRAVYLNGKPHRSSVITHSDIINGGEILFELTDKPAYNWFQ

[3] = molecular target: T3, Alpha-1,2-mannosidase (BT_1769) (Bacteroides thetaiotaomicron) (UniProt Q8A6V7); assay: Activity of Bacteroides thetaiotaomicron GH92 alpha-mannosidase GH92 alpha-mannosidase 1769 assessed as mannose release at 1 mM after 16 hrs by HPLC relative to untreated control after 16 hrs by HPLC
T3 sequence (whole entry): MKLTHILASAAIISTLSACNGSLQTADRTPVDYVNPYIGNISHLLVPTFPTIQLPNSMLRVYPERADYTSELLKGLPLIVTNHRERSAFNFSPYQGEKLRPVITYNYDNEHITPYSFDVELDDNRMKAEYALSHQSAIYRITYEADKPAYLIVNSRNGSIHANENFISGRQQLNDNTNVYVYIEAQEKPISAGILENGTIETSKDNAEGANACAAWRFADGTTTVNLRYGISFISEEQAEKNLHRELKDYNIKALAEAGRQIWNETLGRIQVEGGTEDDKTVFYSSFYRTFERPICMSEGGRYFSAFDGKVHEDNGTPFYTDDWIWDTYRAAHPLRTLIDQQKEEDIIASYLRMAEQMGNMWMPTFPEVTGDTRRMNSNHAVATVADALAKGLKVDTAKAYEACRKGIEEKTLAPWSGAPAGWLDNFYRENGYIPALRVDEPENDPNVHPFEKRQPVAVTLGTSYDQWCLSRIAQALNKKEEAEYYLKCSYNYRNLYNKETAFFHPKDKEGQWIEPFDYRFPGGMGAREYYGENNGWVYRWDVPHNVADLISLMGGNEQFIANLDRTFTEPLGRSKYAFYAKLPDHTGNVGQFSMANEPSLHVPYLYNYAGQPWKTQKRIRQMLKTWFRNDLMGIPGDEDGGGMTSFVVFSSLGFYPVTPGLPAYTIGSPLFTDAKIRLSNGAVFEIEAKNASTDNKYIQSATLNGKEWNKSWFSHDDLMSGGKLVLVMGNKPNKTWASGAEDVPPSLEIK

Row | Activity [1] | Activity [2] | Activity [3] | SMILES
1 | 0.022% | inactive | 0.026% | OC[C@H]1O[C@H](O[C@H]2[C@H](O)[C@H](O)[C@@H](O)O[C@@H]2CO)[C@@H](O)[C@@H](O)[C@@H]1O
2 | inactive | inactive | inactive | OC[C@H]1O[C@H](OC[C@H]2O[C@H](O)[C@@H](O)[C@@H](O)[C@@H]2O)[C@@H](O)[C@@H](O)[C@@H]1O
3 | 100% | inactive | 0.0023% | OC[C@H]1O[C@H](O[C@H]2[C@@H](O)[C@H](O)[C@@H](CO)O[C@@H]2O)[C@@H](O)[C@@H](O)[C@@H]1O
4 | 0.036% | inactive |  | OC[C@H]1O[C@H](O[C@@H]2[C@H](O)[C@@H](O)O[C@H](CO)[C@H]2O)[C@@H](O)[C@@H](O)[C@@H]1O
